Test results taken from PMC5285354, “Cationic Net Charge and Counter Ion Type as Antimicrobial Activity Determinant Factors of Short Lipopeptides” (Frontiers in Microbiology, 2017).
≈ marks a conversion by molar mass, not a printed value. Where two headings read alike, the source gives them in different places. Where a SMILES comes first, the peptide text is derived from it. The star is where a group is joined. Lauroyl = CCCCCCCCCCCC(=O)*; Decanoyl = CCCCCCCCCC(=O)*

How the values were obtained:
Type in all cases: cell-based
[1] = tested on: Escherichia coli (ATCC 25922)
Protocol: (§1) The minimum inhibitory concentration (MIC), minimum bactericidal concentration (MBC) and minimum fungicidal concentration (MFC) were determined according to the procedure recommended by the Clinical Laboratory Standards Institute (CLSI). The following reference strains were tested: Gram-negative E. coli (ATCC 25922), K. pneumoniae (ATCC 700603), P. vulgaris (PCM 2668), P. aeruginosa (ATCC 9027), Gram-positive S. aureus (ATCC 25923), S. epidermidis (PCM 2118), B. subtilis (ATCC 6633), E. faecalis (ATCC 29212) and fungi C. albicans (ATCC 10231), C. tropicalis (PCM 2681), and A. brasiliensis (ATCC 16404). All the microorganisms were from the Polish Collection of Microorganisms (Wroclaw, Poland). MIC was determined using a microbroth dilution method with Mueller-Hinton (MH) broth for bacteria and Sabouraud Dextrose broth for fungi (Becton Dickinson, Le Pont de Claix, France). An initial inoculum of 10^5 cfu/mL was used for bacteria and 10^3 cfu/mL for fungi. Polypropylene 96-well plates (Kartell, Noviglio, Italy) were incubated for 18 h at 37°C for bacteria and for 48 h at 25°C for the tested fungi. MIC (μg/mL) was taken as the lowest concentration of the lipopeptide, at which the observable growth was inhibited. […] The experiments were performed in triplicate on three different days.

[2] = tested on: Aspergillus brasiliensis (ATCC 16404); details: ATCC 16404, 48 h
Protocol: as §1

[3] = tested on: Candida albicans (ATCC 10231); details: ATCC 10231, 48 h
Protocol: as §1

[4] = tested on: Proteus vulgaris (PCM 2668); details: PCM 2668, TFA salt, triplicate; for MIC Proteus vulgaris: Mueller-Hinton broth, 10^5 cfu/mL, 18 h 37°C; for MBC Proteus vulgaris: subculture on Mueller-Hinton II Agar, 24 h 37°C
Protocol: as §1

[5] = tested on: Bacillus subtilis (ATCC 6633); details: for MIC Bacillus subtillis: ATCC 6633, 18 h; for MBC Bacillus subtillis: ATCC 6633, 24 h
Protocol: as §1

[6] = tested on: Candida tropicalis (PCM 2681); details: PCM 2681, 48 h
Protocol: as §1

[7] = tested on: Staphylococcus aureus (ATCC 25923)
Protocol: as §1

[8] = tested on: Klebsiella pneumoniae (ATCC 700603)
Protocol: as §1

[9] = tested on: Staphylococcus epidermidis (PCM 2118); details: for MIC Staphylococcus epidermidis: PCM 2118, 18 h; for MBC Staphylococcus epidermidis: PCM 2118, 24 h
Protocol: as §1

[10] = tested on: Pseudomonas aeruginosa (ATCC 9027); details: ATCC 9027, 18 h
Protocol: as §1

[11] = tested on: Enterococcus faecalis (ATCC 29212)
Protocol: as §1

human red blood cells = details: 1 h
Protocol: The hemolytic activity of the lipopeptides was determined by exposing human red blood cells (4% v/v) to tested compounds at graded concentrations. Red blood cells were obtained from a healthy donor. EDTA was used to prevent the blood clotting. The plasma was removed via centrifugation and the erythrocytes were washed three times with PBS. The red blood cells were suspended in PBS and incubated with different concentrations of lipopeptides at 37°C for 1 h and centrifuged for 5 min at 1000 × g. The supernatants were transferred to a sterile 96-well plate and hemoglobin release was measured with an Epoch microplate spectrophotometer (BioTek, USA) by recording the absorbance at 550 nm. A 0.1% Triton X-100 solution was used as the positive control (100% of hemolysis) and pure PBS as the negative (0% of hemolysis). Minimum hemolytic concentration (MHC) was taken as the lowest concentration which induced 10% of hemolysis.

[12] = tested on: Pseudomonas aeruginosa (ATCC 9027); details: ATCC 9027, 24 h
[13] = ATCC 25922, TFA salt, Mueller-Hinton broth, 10^5 cfu/mL, 18 h 37°C, triplicate
[14] = ATCC 25922, TFA salt, subculture on Mueller-Hinton II Agar, 24 h 37°C, triplicate
[15] = ATCC 25923, TFA salt, MIC wells subcultured on Mueller-Hinton II Agar, 24 h 37°C, triplicate
[16] = ATCC 25923, TFA salt, Mueller-Hinton broth, 10^5 cfu/mL, 18 h 37°C, triplicate on three days
[17] = ATCC 29212, TFA salt, subculture on Mueller-Hinton II Agar, 24 h 37°C, triplicate

| MIC Aspergillus brasiliensis [2] [µg/mL] | MIC Candida albicans [3] [µg/mL] | MIC Proteus vulgaris [4] [µg/mL] | MIC Bacillus subtillis [5] [µg/mL] | MIC Candida tropicalis [6] [µg/mL] | MIC Staphylococcus epidermidis [9] [µg/mL] | MIC Pseudomonas aeruginosa [10] [µg/mL] | MIC Staphylococcus aureus ([7]; ATCC 25923, 18 h) [µg/mL] | MIC Enterococcus fecalis ([11]; ATCC 29212, 18 h) [µg/mL] | Compound | MFC Aspergillus brasiliensis [2] [µg/mL] | MFC Candida albicans [3] [µg/mL] | MBC Proteus vulgaris [4] [µg/mL] | MBC Bacillus subtillis [5] [µg/mL] | MFC Candida tropicalis [6] [µg/mL] | MBC Staphylococcus epidermidis [9] [µg/mL] | Hemolysis HC10 (MHC), concentration of lipopeptide inducing 10% of hemolysis (human red blood cells) [µg/mL] | MBC Pseudomonas aeruginosa [12] [µg/mL] | MBC Escherichia coli ([1]; ATCC 25922, 24 h) [µg/mL] | MBC Staphylococcus aureus ([7]; ATCC 25923, 24 h) [µg/mL] | MBC Klebsiella pneumoniae ([8]; ATCC 700603, 24 h) [µg/mL] | also measured |
| --- | --- | --- | --- | --- | --- | --- | --- | --- | --- | --- | --- | --- | --- | --- | --- | --- | --- | --- | --- | --- | --- |
| 1000 (≈ 2340 µM) | 2000 (≈ 4680 µM) | >2000 | 256 (≈ 599 µM) | 1000 (≈ 2340 µM) | 256 (≈ 599 µM) | 2000 (≈ 4680 µM) |  |  | CCCCCCCCCC(=O)N[C@@H](CCCCN)C(=O)N[C@@H](CCCCN)C(N)=O [C10-KK-NH2] | 1000 (≈ 2340 µM) | 2000 (≈ 4680 µM) | >2000 | 512 (≈ 1200 µM) | 1000 (≈ 2340 µM) | 512 (≈ 1200 µM) | 4000 | 2000 (≈ 4680 µM) |  |  |  | MIC Escherichia coli [1, 13]: >2000 µg/mL; MBC Escherichia coli [1, 14]: >2000 µg/mL; MBC Staphylococcus aureus [7, 15]: >2000 µg/mL; MIC Staphylococcus aureus [7, 16]: >2000 µg/mL; MIC Klebsiella pneumoniae ([8]; ATCC 700603, TFA salt, Mueller-Hinton broth, 10^5 cfu/mL, 18 h 37°C, triplicate): >2000 µg/mL; MBC Klebsiella pneumoniae ([8]; ATCC 700603, TFA salt, subculture on Mueller-Hinton II Agar, 24 h 37°C, triplicate): >2000 µg/mL; MIC Enterococcus fecalis ([11]; ATCC 29212, TFA salt, Mueller-Hinton broth, 10^5 cfu/mL, 18 h 37°C, triplicate): >2000 µg/mL; MBC Enterococcus fecalis [11, 17]: >2000 µg/mL |
| 1000 (≈ 1950 µM) | 2000 (≈ 3900 µM) | >2000 | 512 (≈ 999 µM) | 2000 (≈ 3900 µM) | 64 (≈ 125 µM) | 1000 (≈ 1950 µM) |  |  | CCCCCCCCCCCC(=O)N[C@@H](CCCCN)C(=O)NCC(=O)N[C@@H](CCCCN)C(N)=O [C12-KGK-NH2] (Lauroyl-Lys-Gly-Lys-NH2) | 2000 (≈ 3900 µM) | 2000 (≈ 3900 µM) |  | 1000 (≈ 1950 µM) | 2000 (≈ 3900 µM) | 128 (≈ 250 µM) | 1000 | 1000 (≈ 1950 µM) | 1000 (≈ 1950 µM) | 1000 (≈ 1950 µM) | 1000 (≈ 1950 µM) |  |
| 512 (≈ 877 µM) | 1000 (≈ 1710 µM) | >2000 | 64 (≈ 110 µM) | 1000 (≈ 1710 µM) | 64 (≈ 110 µM) | 512 (≈ 877 µM) | 1000 (≈ 1710 µM) | 512 (≈ 877 µM) | CCCCCCCCCCCC(=O)N[C@@H](CCCCN)C(=O)N[C@@H](CCCCN)C(=O)N[C@@H](CCCCN)C(N)=O [C12-KKK-NH2] | 512 (≈ 877 µM) | 1000 (≈ 1710 µM) |  | 128 (≈ 219 µM) | 1000 (≈ 1710 µM) | 64 (≈ 110 µM) | 512 |  | 1000 (≈ 1710 µM) | 1000 (≈ 1710 µM) | 1000 (≈ 1710 µM) | MIC Klebsiella pneumoniae ([8]; ATCC 700603, 18 h): 1000 µg/mL (≈ 1710 µM); MBC Enterococcus fecalis ([11]; ATCC 29212, 24 h): 512 µg/mL (≈ 877 µM) |
| 2000 (≈ 4390 µM) | 1000 (≈ 2190 µM) | >2000 | 64 (≈ 140 µM) | 1000 (≈ 2190 µM) | 64 (≈ 140 µM) | 2000 (≈ 4390 µM) | 2000 (≈ 4390 µM) | 512 (≈ 1120 µM) | CCCCCCCCCCCC(=O)N[C@@H](CCCCN)C(=O)N[C@@H](CCCCN)C(N)=O [C12-KK-NH2] | 2000 (≈ 4390 µM) | 2000 (≈ 4390 µM) | >2000 | 128 (≈ 281 µM) | 2000 (≈ 4390 µM) | 64 (≈ 140 µM) |  | 2000 (≈ 4390 µM) | 2000 (≈ 4390 µM) | 2000 (≈ 4390 µM) | 2000 (≈ 4390 µM) | MIC Escherichia coli ([1]; ATCC 25922, 18 h): 2000 µg/mL (≈ 4390 µM); MIC Klebsiella pneumoniae ([8]; ATCC 700603, 18 h): 2000 µg/mL (≈ 4390 µM); MBC Enterococcus fecalis ([11]; ATCC 29212, 24 h): 512 µg/mL (≈ 1120 µM) |
| 1000 (≈ 2800 µM) | 1000 (≈ 2800 µM) | >2000 | 512 (≈ 1440 µM) | 1000 (≈ 2800 µM) | 512 (≈ 1440 µM) | 1000 (≈ 2800 µM) |  | 1000 (≈ 2800 µM) | CCCCCCCCCC(=O)N[C@@H](CCCCN)C(=O)NCC(N)=O [C10-KG-NH2] (Decanoyl-Lys-Gly-NH2) | 2000 (≈ 5610 µM) | 2000 (≈ 5610 µM) | >2000 | 512 (≈ 1440 µM) | 2000 (≈ 5610 µM) | 1000 (≈ 2800 µM) |  | 2000 (≈ 5610 µM) |  |  | 2000 (≈ 5610 µM) | MIC Escherichia coli [1, 13]: >2000 µg/mL; MBC Escherichia coli [1, 14]: >2000 µg/mL; MBC Staphylococcus aureus [7, 15]: >2000 µg/mL; MIC Staphylococcus aureus [7, 16]: >2000 µg/mL; MIC Klebsiella pneumoniae ([8]; ATCC 700603, 18 h): 1000 µg/mL (≈ 2800 µM); MBC Enterococcus fecalis [11, 17]: >1000 µg/mL |
| 128 (≈ 180 µM) | 256 (≈ 360 µM) | >2000 | 128 (≈ 180 µM) | 256 (≈ 360 µM) | 64 (≈ 89.9 µM) |  | 1000 (≈ 1400 µM) | 512 (≈ 719 µM) | CCCCCCCCCCCC(=O)N[C@@H](CCCCN)C(=O)N[C@@H](CCCCN)C(=O)N[C@@H](CCCCN)C(=O)N[C@@H](CCCCN)C(N)=O [C12-KKKK-NH2] (Lauroyl-KKKK-NH2) | 256 (≈ 360 µM) | 256 (≈ 360 µM) |  | 256 (≈ 360 µM) | 512 (≈ 719 µM) | 64 (≈ 89.9 µM) | 1000 |  | 256 (≈ 360 µM) | 1000 (≈ 1400 µM) | 1000 (≈ 1400 µM) | MIC Escherichia coli ([1]; ATCC 25922, 18 h): 256 µg/mL (≈ 360 µM); MBC Enterococcus fecalis ([11]; ATCC 29212, 24 h): 512 µg/mL (≈ 719 µM) |
